{"source": "patent US7268108B2", "about": "“Alpha-melanocyte stimulating hormone derivatives and cosmetic application thereof” (Institut European de Biologie Cellulaire, priority 2002, dated 2007)", "test_system": "cutaneous melanogenesis", "test": "double-blind study of melanostimulant effects by topical administration in humans", "type": "in vivo", "details": "gel at 10 ppm, topical twice a day for 3 weeks, listed as peptide no. 1", "protocol": "2. A double-blind study of the melanostimulant effects by topical administration of peptide no. 1 in the table was carried out in humans.\nA gel of peptide no. 1 at 10 ppm and its placebo were applied, twice a day for 3 weeks, to the inner face of the forearms of twelve normal volunteers who had given their informed consent. Since the arms were not exposed to the sun, they were given an exactly calibrated artificial solar exposure of 0.6 MED (minimum erythema dose) once a day from the 16th to 20th day.\n24 h after the final treatment, a clinical evaluation of the treated regions was carried out blind, and the intensity of coloration was marked according to a five-level index scale. A biopsy sample was then taken in order to quantify the melanin produced and to evaluate the ultrastructural consequences of the treatment.\nThe quantification of the epidermal melanin was carried out on histological sections by image analysis after labeling with AgNO3. Only the active layers of the epidermis were analyzed (from the stratum germinativum to the stratum spinosum), using the Leica Quantimet after digitization (Sony CCD camera).\nThe ultrastructural analysis of the melanocytes and melanosomes was carried out by electron microscopy. A double-contrast technique was used on the thin sections, which were then observed at magnifications ranging up to ×12000 (Jeol 1200EX).", "note": "Entries after “also recorded” stand apart in the source; their conditions may differ. Where a SMILES comes first, the peptide text is derived from it. [ ]: non-standard residue; d: D form. Nle = CCCC[C@H](N)C(=O)O"}
{"smiles": "CCCC[C@H](NC(C)=O)C(=O)N[C@@H](C)C(=O)N[C@@H](Cc1c[nH]cn1)C(=O)N[C@H](Cc1ccccc1)C(=O)N[C@@H](CCCNC(=N)N)C(=O)N[C@@H](Cc1c[nH]c2ccccc12)C(N)=O", "note": "[Compound 1, Ac-Nle-Ala-His-DPhe-Arg-Trp-NH2] (Ac-[Nle]AH[dF]RW-NH2)", "values": [{"measurement": "local tolerance (clinical observation of the treated regions)", "result": "no sign of intolerance; also recorded: completely tolerated at the local level"}]}
